One assay deals with T1, hAR (Homo sapiens, UniProt P10275).
T1 construct: made in house; host or cells: baculovirus/Sf9 insect cells
T1 sequence (P10275 1-920): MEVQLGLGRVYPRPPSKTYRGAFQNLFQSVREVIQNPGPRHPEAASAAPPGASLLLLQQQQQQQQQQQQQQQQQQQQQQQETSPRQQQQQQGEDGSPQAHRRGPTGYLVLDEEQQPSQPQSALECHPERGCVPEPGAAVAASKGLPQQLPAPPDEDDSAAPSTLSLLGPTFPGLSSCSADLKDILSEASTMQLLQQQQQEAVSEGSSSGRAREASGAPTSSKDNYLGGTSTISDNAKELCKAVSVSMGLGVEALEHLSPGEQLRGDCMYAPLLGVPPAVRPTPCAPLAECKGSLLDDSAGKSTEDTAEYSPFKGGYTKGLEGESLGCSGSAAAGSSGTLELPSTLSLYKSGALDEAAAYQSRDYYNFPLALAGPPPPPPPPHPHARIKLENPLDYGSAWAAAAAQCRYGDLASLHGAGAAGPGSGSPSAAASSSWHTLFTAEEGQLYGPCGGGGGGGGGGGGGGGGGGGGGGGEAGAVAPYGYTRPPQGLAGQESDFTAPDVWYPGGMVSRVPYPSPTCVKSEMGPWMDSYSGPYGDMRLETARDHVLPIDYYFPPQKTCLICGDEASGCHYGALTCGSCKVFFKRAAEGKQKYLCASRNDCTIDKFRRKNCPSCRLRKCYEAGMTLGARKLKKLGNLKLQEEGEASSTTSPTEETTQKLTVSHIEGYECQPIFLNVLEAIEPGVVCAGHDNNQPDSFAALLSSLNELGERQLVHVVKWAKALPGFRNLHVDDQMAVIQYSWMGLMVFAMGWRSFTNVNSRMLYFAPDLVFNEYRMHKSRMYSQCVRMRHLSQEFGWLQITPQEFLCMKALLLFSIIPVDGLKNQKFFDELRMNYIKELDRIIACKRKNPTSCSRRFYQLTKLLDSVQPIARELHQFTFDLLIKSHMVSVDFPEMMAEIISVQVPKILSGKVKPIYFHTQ
As to the kind of experiment: Competitive binding analysis on baculovirus/Sf9 generated hAR extracts with 3H-DHT tracer. The conditions noted are these: 1 nM 3H-DHT, one hour at 4° C., mean of multiple tests. On the procedure: The description below describes how the assay was carried out.
Competitive binding analysis was performed on baculovirus/Sf9 generated hAR extracts in the presence or absence of different concentrations of test agent and a fixed concentration of ^3H-dihydrotestosterone (^3H-DHT) as tracer. This binding assay method is a modification of a protocol previously described (Liao S., et. al. J. Steroid Biochem. 20:11-17 1984). Briefly, progressively decreasing concentrations of compounds are incubated in the presence of hAR extract (Chang et al. P.N.A.S. Vol. 89, pp. […], 1992), hydroxylapatite, and 1 nM ^3H-DHT for one hour at 4° C. Subsequently, the binding reactions are washed three times to completely remove excess unbound ^3H-DHT. hAR bound ^3H-DHT levels are determined in the presence of compounds (i.e. competitive binding) and compared to levels bound when no competitor is present (i.e. maximum binding). Compound binding affinity to the hAR is expressed as the concentration of compound at which one half of the maximum binding is inhibited.

A further assay has as its target T2, androgen receptor (Homo sapiens, UniProt P10275, Q868H).
T2 construct: a human breast tumor cell line expressing androgen receptor; endogenous in cells; host or cells: MDA-MB453-MMTV clone 54-19 (only the MMTV-luciferase reporter was transfected)
T2 sequence (P10275 1-920 Q868H): T1 sequence (P10275 1-920) with Q868H
As to the kind of experiment: AR antagonist cell assay (MDA-MB453-MMTV clone 54-19, luciferase reporter). The class given is cell-based. As to conditions: 100 pM DHT, 17 hr, mean of multiple tests. The method, then: The compounds ability to antagonize the effects of androgen on the androgen receptor were determined in a whole cell assay as described immediately below.
Experimental Procedure for AR Antagonist Cell Assay
This cell line is a stable transfected cell line with MDA-MB453 cell background (a human breast tumor cell line expressing androgen receptor). A MMTV minimal promoter containing ARE was first cloned in front of a firefly luciferase reporter gene. Then the cascade was cloned into transfection vector pUV120puro. Electroporation method was used for transfecting MDA-MB-453 cell. Puromycin resistant stable cell line was selected.
Cell Culture Media and Reagents:
Culture medium: DMEM (high glucose, Gibco cat #: 11960-044), 10% FBS, and 1% L-glutamine
Plating medium: DMEM (phenol red free), 10% charcoal treated HyClone serum, 1% L-glutamine
Assay medium: DMEM (phenol red free), 1% charcoal treated HyClone serum, 1% L-glutamine, and 1% penicillin/streptomycin
3× luciferase buffer: 2% beta-mercaptoethanol, 0.6% ATP, 0.0135% luciferine in cell lysis buffer
• 1. Cells are maintained in culture medium, splitting cells when they reach 80-90% confluence • 2. To test compounds, 10,000 cells/well are plated to opaque 96 cell culture plate in 100 ul/well plating medium, culture for overnight at 37° C. in cell culture incubator • 3. Carefully remove plating medium, then add 80 ul/well of pre-warmed assay medium, add 10 ul/well testing compound (final concentration at) 1000 nM, 200 nM, 40 nM, 8 nM, 1.6 nM, and 0.32 nM), incubate at 37° C. for 30 minutes • 4. Add 10 ul/well freshly prepared DHT (final concentration at 100 pM) to each well, incubate at 37° C. for 17 hr (overnight) • 5.
The results are reported as the mean of multiple tests as described below (the numbers of tests are indicated in the footnote). N.D. denotes that the compound was not tested.

For assay [1] the following is noted: after 7 years of treatment; cited from earlier work.
Where [2] appears, read: MDA-MB453-MMTV clone 54-19 cells, read-out: AR Cell IC50.
The mark [3] stands for this setting: hAR extract, read-out: AR Binding IC50.
The mark [4] stands for this setting: AR Cell IC50, MDA-MB453-MMTV clone 54-19 cells.

Molecules are shown by their SMILES. Numbering of substitutions follows the chain as printed. Read-outs that look alike come from different tables or passages of the source.

`CCC1CCCCC1Oc1ccc(C#N)c(Cl)c1` (centres unmarked) [Example 27, 2-Chloro-4-(2-ethyl-cyclohexyloxy)-benzonitrile]: the IC50 – broadly, the midpoint of a concentration-inhibition curve – is 30 nM at hAR (AR Binding IC50, hAR extract) and 330 nM on androgen receptor (setting [2]).

For `C[C@H]1CC[C@@H](Oc2ccc(C#N)c(Cl)c2)CC1` [Example 31, 2-Chloro-4-(4-cis-methyl-cyclohexyloxy)-benzonitrile], the IC50 is 212 nM at hAR (setting [3]) and 66 nM at androgen receptor (setting [4]).

Consider `C[C@@H]1CCCC[C@@H]1Oc1ccc(C#N)c(Cl)c1` [Example 40, (1S,2R)-2-Chloro-4-(2-methyl-cyclohexyloxy)-benzonitrile], for which the IC50 at hAR (AR Binding IC50, hAR extract) worked out at 31 nM; at androgen receptor (setting [2]) it was 114 nM.

Consider `C[C@H]1CCCC[C@@H]1Oc1ccc(C#N)c(Cl)c1` [Example 41, (1S,2S)-2-Chloro-4-(2-methyl-cyclohexyloxy)-benzonitrile], for which the IC50 on hAR (AR Binding IC50, hAR extract) worked out at 18 nM; at androgen receptor (setting [2]), 46 nM.

Take `N#Cc1ccc(OC2CCCCCC2)c(Cl)c1` [Example 43, 3-Chloro-4-cycloheptyloxy-benzonitrile]: the IC50 on hAR (setting [3]) was 289 nM; at androgen receptor (setting [2]), 12 nM.

Turning to `N#Cc1ccc(OC2CCCCC2)cc1Cl` [Example 45, 2-Chloro-4-cyclohexyloxy-benzonitrile], the figures for the IC50 at hAR (setting [3]) and on androgen receptor (setting [2]) were 196 nM and 147 nM, respectively.

As for `N#Cc1ccc(OC2CCCC2)cc1Cl` [Example 46, 2-Chloro-4-cyclopentyloxy-benzonitrile], the IC50 on hAR (AR Binding IC50, hAR extract) was 49 nM; on androgen receptor (setting [2]), 18 nM.

Regarding `CC(C)[C@H]1CC[C@H](C)C[C@@H]1Oc1ccc(C#N)c(Cl)c1` [Example 47, (1S,2R,5S)-2-Chloro-4-(2-isopropyl-5methyl-cyclohexyloxy)-benzonitrile], the IC50 at hAR (setting [3]) was 107 nM; on androgen receptor (setting [2]), 750 nM.

On to `C=C(C)[C@H]1CC[C@H](C)[C@@H](Oc2ccc(C#N)c(Cl)c2)C1` [Example 49, (1S,2S,5S)-2-Chloro-4-(5-isopropenyl-2-methyl-cyclohexyloxy)-benzonitrile], for which the IC50 on hAR (AR Binding IC50, hAR extract) was 10 nM; at androgen receptor (setting [2]) it was 49 nM.

In the case of `N#Cc1ccc(O[C@@H]2CCCC[C@H]2C#N)cc1Cl` [Example 50, (1R,2S)-2-Chloro-4-(2-cyano-cyclohexyloxy)-benzonitrile], the IC50 was determined as 17 nM at hAR (AR Binding IC50, hAR extract) and 202 nM at androgen receptor (setting [2]).

On to `CC1CCCC(Oc2ccc(C#N)c(Cl)c2)C1C` (centres unmarked) [Example 52, 2-Chloro-4-(2,3-dimethyl-cyclohexyloxy)-benzonitrile], for which the IC50 at hAR (AR Binding IC50, hAR extract) came to 72 nM; on androgen receptor (setting [2]) it was 308 nM.

On to `CC1CCCC(C)C1Oc1ccc(C#N)c(Cl)c1` (centres unmarked) [Example 53, 2-Chloro-4-(2,6-dimethyl-cyclohexyloxy)-benzonitrile], for which the IC50 is 33 nM at hAR (AR Binding IC50, hAR extract) and more than 1000 nM on androgen receptor (setting [2]).

For the compound `N#Cc1ccc(O[C@H]2CCCC[C@@H]2c2ccccc2)cc1Cl` [Example 55, (1S,2R)-2-Chloro-4-(2-phenyl-cyclohexyloxy)-benzonitrile], the IC50 at hAR (AR Binding IC50, hAR extract) is 265 nM; at androgen receptor (setting [2]), 421 nM.

As to `N#Cc1ccc(OC2CC3CCC2C3)cc1Cl` (centres unmarked) [Example 62, 4-(Bicyclo[2.2.1]hept-2-yloxy)-2-chloro-benzonitrile], the IC50 at hAR (AR Binding IC50, hAR extract) was 46 nM; on androgen receptor (setting [2]) it was less than 0.32 nM.

`C[C@H]1CCC[C@@H]1Oc1ccc(C#N)c(Cl)c1` [Example 67, (1S,2S)-2-Chloro-4-(2-methyl-cyclopentyloxy)-benzonitrile]: the IC50 was 44 nM on hAR (AR Binding IC50, hAR extract) and less than 0.32 nM on androgen receptor (setting [2]).

On to `N#Cc1ccc(OC2CCC2)cc1Cl` [Example 68, 2-Chloro-4-cyclobutyloxy-benzonitrile], for which the IC50 at hAR (setting [3]) was found to be 297 nM; on androgen receptor (setting [2]), 103 nM.

For `C=CCO[C@H]1CCCC[C@@H]1Oc1ccc(C#N)c(C(F)(F)F)c1` [Example 71, (1S,2S)-4-(2-Allyloxy-cyclohexyloxy)-2-trifluoromethyl-benzonitrile], the IC50 at hAR (setting [3]) came out at 374 nM; on androgen receptor (setting [4]), 23 nM.

For the compound `NCCCC(O)(P(=O)(O)O)P(=O)(O)O` [alendronate], in assay [1], the “Increase in spinal BMD” value is recorded as not above 11%.

Values taken from US7670613B2, “Androgen modulators” (Pfizer Inc., priority 2004, dated 2010).
